US9248145B2, “Two alkylresorcinol synthase genes from sorghum; cloning, expression, transformation and characterization” (The United States of America, as represented by The …, priority 2010, dated 2016)

Legend:
recombinant ARS1 [1] = target: T1, recombinant ARS1 (Sorghum bicolor, UniProt C5Y4Z2); assay: Steady-state kinetics with [2-14C]-malonyl-CoA, TLC/phosphor imaging; type: biochemical; conditions: for Km: same conditions as kcat; for kcat: starter kinetics: 40 μM [2-14C]-malonyl-CoA, 1.43-10 μM starter, malonyl-CoA kinetics: 25 μM palmitoleoyl-CoA starter, pH 7.0, 30° C., 5 min
Procedure: (§1) Enzyme assays, performed in triplicate, for starter unit CoA kinetics contained 100 mM potassium phosphate buffer (pH 7.0), 40 μM [2-^14C]-malonyl-CoA (50-60 mCi/mmol, 1.85-2.22 GBq/mmol; American Radiolabeled Chemicals, Inc., St. Louis, Mo.), 1.43-10 μM starter unit (e.g., palmitoyl-CoA), and 0.75 μg protein in a 200 μL volume at 30° C. for 5 min. Enzyme assays for malonyl-CoA kinetics contained 100 mM potassium phosphate buffer (pH 7.0), 1.66-25 μM [2-^14C]-malonyl-CoA, 25 μM starter unit (palmitoleoyl-CoA), and 0.75 μg protein in a 200 μL volume at 30° C. for 5 min. Reactions were quenched by addition of 10 μL of 20% HCl. The products were extracted as described above, and were separated by thin layer chromatography (silica gel 60 F254; chloroform:ethyl acetate=70:30; 15 min). Product detection and formation was quantified through the use of the Cyclone storage phosphor system and OptiQuant 3.0 image analysis software (PerkinElmer, Wellesley, Mass.). Data were fit to the Michaelis-Menten equation using the Sigma Plot 9.01 enzyme kinetics module (Systat, Inc., San Jose, Calif.).

recombinant ARS2 [2] = target: T2, recombinant ARS2 (Sorghum bicolor, UniProt C5YRS1); assay: as above; type: biochemical; conditions: for Km: same conditions as kcat; for kcat: starter kinetics: 40 μM [2-14C]-malonyl-CoA, 1.43-10 μM starter, malonyl-CoA kinetics: 25 μM palmitoleoyl-CoA starter, pH 7.0, 30° C., 5 min
Procedure: as §1

recombinant ARS2 [3] = target: T2, recombinant ARS2; assay: Polyketide synthase enzyme assay, 5-alkylresorcinol formation (GC-MS, m/z 268); type: biochemical; conditions: for activity as starter unit (in words): malonyl-CoA extender
Procedure: (§2) Reactions were quenched by addition of 10 μL of 20% HCl, and products were extracted by phase partitioning with 1 ml of ethyl acetate. The organic phase (upper layer) obtained by centrifugation at ˜14,000×g for 1 min was transferred to a fresh tube, dried under vacuum, and subsequently analyzed by GC-EI-MS as a trimethysilyl (TMS) derivative.
(§3) Reactions were quenched by addition of 10 μL of 20% HCl. The products were extracted as described above, and were separated by thin layer chromatography (silica gel 60 F254; chloroform:ethyl acetate=70:30; 15 min). Product detection and formation was quantified through the use of the Cyclone storage phosphor system and OptiQuant 3.0 image analysis software (PerkinElmer, Wellesley, Mass.).
(§4) Recombinant enzyme studies were next performed to examine substrate preferences for the 3 putative type III PKS enzymes maximally expressed in root hairs. […] Acyl-CoAs varying in length and degree of saturation were tested in enzymatic assays with all three recombinant enzymes, as well as the non-linear starter units benzoyl-CoA, isovaleryl-CoA, and isobutryl-CoA used by several other plant type III PKS enzymes (Austin and Noel, supra).

recombinant Os05g12180 = assay: Polyketide synthase enzyme assay, alkylresorcinol synthase activity; type: biochemical, Oryza sativa
Procedure: (§5) Polyketide synthase enzyme assays, performed in triplicate, contained 100 mM potassium phosphate buffer (pH 7.0), 40 μM malonyl-CoA, 25 μM starter unit (e.g., palmitoyl-CoA), and 2 μg protein in a 200 μL volume at 30° C. for 15 min. […] Reactions were quenched by addition of 10 μL of 20% HCl, and products were extracted by phase partitioning with 1 ml of ethyl acetate. The organic phase (upper layer) obtained by centrifugation at ˜14,000×g for 1 min was transferred to a fresh tube, dried under vacuum, and subsequently analyzed by GC-EI-MS as a trimethysilyl (TMS) derivative. Product formation was quantified using selective ion monitoring at m/z 268, a fragment ion common to all alkylresorcinols, generated by benzylic cleavage of the alkyl side chain. The identification of the m/z 268 [(5-methyl-1,3 phenylene)bis(oxy)bis(TMS)]^+ base ion and the parent [M]^+ provide confirmation of the 5-alkylresorcinolic structure as well as the length and degree of saturation of the associated side chain (Occolowitz, 1964. Anal. Chem. 36:2177-2181; Suzuki et al. 1996, supra; Suzuki at al. 2003, supra).
as §1
(§6) To explore this possibility, the predicted open reading frames encoded by O. sativa (cv. Nipponbare) LOC_Os05g12180, LOC_Os10g08620, and LOC_Os10g07040, were also expressed in E. coli as N-terminal polyhistidine fusions, and tested for alkylresorcinol synthase activity with the same panel of fatty acyl-CoA substrates used for recombinant ARS1 and ARS2 enzymatic studies (FIG. 4).

recombinant Os10g08620 = assay: as above; type: biochemical, Oryza sativa
Procedure: as §5, §1, §6

recombinant Os10g07040 = assay: as above; type: biochemical, Oryza sativa
Procedure: as §5, §1, §6

recombinant ARS1 [4] = target: T1, recombinant ARS1; assay: Polyketide synthase enzyme assay, 5-alkylresorcinol formation (GC-MS, m/z 268); type: biochemical; conditions: for activity as starter unit (in words): malonyl-CoA extender
Procedure: as §2, §3, §4

[5] = 25 μM starter unit, 40 μM malonyl-CoA, pH 7.0, 30° C., 15 min

T2 sequence (C5YRS1 entry or part of it): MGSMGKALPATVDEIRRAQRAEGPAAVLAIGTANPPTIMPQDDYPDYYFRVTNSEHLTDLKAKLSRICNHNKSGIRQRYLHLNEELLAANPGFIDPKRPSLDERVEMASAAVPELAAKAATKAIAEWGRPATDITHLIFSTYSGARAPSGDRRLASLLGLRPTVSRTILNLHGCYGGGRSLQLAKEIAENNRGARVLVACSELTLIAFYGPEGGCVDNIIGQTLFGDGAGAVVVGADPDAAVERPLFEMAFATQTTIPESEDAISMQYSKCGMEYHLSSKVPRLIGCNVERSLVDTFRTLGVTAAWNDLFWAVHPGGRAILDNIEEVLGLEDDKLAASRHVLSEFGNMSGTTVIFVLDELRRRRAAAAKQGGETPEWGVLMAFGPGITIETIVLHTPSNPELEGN
T1 sequence (C5Y4Z2 entry or part of it): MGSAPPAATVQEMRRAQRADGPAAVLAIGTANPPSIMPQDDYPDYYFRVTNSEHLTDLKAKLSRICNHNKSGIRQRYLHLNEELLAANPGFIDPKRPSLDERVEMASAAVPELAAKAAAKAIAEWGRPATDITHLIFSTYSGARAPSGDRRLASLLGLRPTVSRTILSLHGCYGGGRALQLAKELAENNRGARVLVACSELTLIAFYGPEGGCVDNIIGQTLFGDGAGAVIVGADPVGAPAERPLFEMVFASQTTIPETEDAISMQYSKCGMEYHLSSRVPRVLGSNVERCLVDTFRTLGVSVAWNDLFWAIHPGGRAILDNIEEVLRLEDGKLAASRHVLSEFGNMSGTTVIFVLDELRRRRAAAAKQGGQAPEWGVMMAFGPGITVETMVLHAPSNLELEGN

## CCCCCCCCCCCCCCCC(=O)SCCNC(=O)CCNC(=O)[C@H](O)C(C)(C)COP(=O)(O)OP(=O)(O)OC[C@H]1O[C@@H](n2cnc3c(N)ncnc32)[C@H](O)[C@@H]1OP(=O)(O)O [C16:0-CoA, palmitoyl-CoA]
Recombinant ARS1 [1]
  Km: 2.3 µM
  kcat: 0.0132 s⁻¹
Recombinant ARS2 [2]
  Km: 4.1 µM
  kcat: 0.0183 s⁻¹

## CCCCCC/C=C\CCCCCCCC(=O)SCCNC(=O)CCNC(=O)[C@H](O)C(C)(C)COP(=O)(O)OP(=O)(O)OC[C@H]1O[C@@H](n2cnc3c(N)ncnc32)[C@H](O)[C@@H]1OP(=O)(O)O [C16:1-CoA, palmitoleoyl-CoA]
Recombinant ARS2 [3]; [5]
  maximal 5-alkylresorcinol-forming activity: 60.1 pkat mg^1
Recombinant ARS1 [1]
  Km: 2.3 µM
  kcat: 0.0183 s⁻¹
Recombinant ARS2 [2]
  Km: 3.6 µM
  kcat: 0.0233 s⁻¹

## CC(C)(COP(=O)(O)OP(=O)(O)OC[C@H]1O[C@@H](n2cnc3c(N)ncnc32)[C@H](O)[C@@H]1OP(=O)(O)O)[C@@H](O)C(=O)NCCC(=O)NCCSC(=O)CC(=O)O [Malonyl-CoA, malonyl-CoA]
Recombinant ARS1 [1]
  Km: 5.2 µM
  kcat: 0.0148 s⁻¹
Recombinant ARS2 [2]
  Km: 5.8 µM
  kcat: 0.0123 s⁻¹

## CCCCC/C=C\C/C=C\C/C=C\C/C=C\CCCC(=O)SCCNC(=O)CCNC(=O)[C@H](O)C(C)(C)COP(=O)(O)OP(=O)(O)OC[C@H]1O[C@@H](n2cnc3c(N)ncnc32)[C@H](O)[C@@H]1OP(=O)(O)O [arachidonoyl-CoA]
Recombinant Os05g12180
  activity as starter unit (in words): No activity
Recombinant Os10g08620
  activity as starter unit (in words): No activity
Recombinant Os10g07040
  activity as starter unit (in words): No activity

## CC(C)(COP(=O)(O)OP(=O)(O)OC[C@H]1O[C@@H](n2cnc3c(N)ncnc32)[C@H](O)[C@@H]1OP(=O)(O)O)[C@@H](O)C(=O)NCCC(=O)NCCSC(=O)c1ccccc1 [benzoyl-CoA]
Recombinant ARS1 [4]
  activity as starter unit (in words): No activity
Recombinant ARS2 [3]
  activity as starter unit (in words): No activity

## CCCCCCCC(=O)SCCNC(=O)CCNC(=O)[C@H](O)C(C)(C)COP(=O)(O)OP(=O)(O)OC[C@H]1O[C@@H](n2cnc3c(N)ncnc32)[C@H](O)[C@@H]1OP(=O)(O)O [capryloyl-CoA]
Recombinant ARS1 [4]
  triketide pyrone derailment product, share of the total moles product derived from the starter: ~33%

## C=CC/C=C\C/C=C\CCCCCCCCSCCNC(=O)CCNC(=O)[C@H](O)C(C)(C)COP(=O)(O)OP(=O)(O)OC[C@H]1O[C@@H](n2cnc3c(N)ncnc32)[C@H](O)[C@@H]1OP(=O)(O)O [hexadecatrienyl-CoA, (9Z,12Z)-Hexadeca-9,12,15-trienyl-CoA]
Recombinant ARS1 [4]
  activity as starter unit (in words): utilized
Recombinant ARS2 [3]
  activity as starter unit (in words): utilized

## CCCCCC(=O)SCCNC(=O)CCNC(=O)[C@H](O)C(C)(C)COP(=O)(O)OP(=O)(O)OC[C@H]1O[C@@H](n2cnc3c(N)ncnc32)[C@H](O)[C@@H]1OP(=O)(O)O [hexanoyl-CoA]
Recombinant Os05g12180
  activity as starter unit (in words): No activity
Recombinant Os10g08620
  activity as starter unit (in words): No activity
Recombinant Os10g07040
  activity as starter unit (in words): No activity
Recombinant ARS1 [4]
  triketide pyrone derailment product, share of the total moles product derived from the starter: approximately 9%
Recombinant ARS2 [3]
  triketide pyrone derailment product, share of the total moles product derived from the starter: approximately 9%

## CC(C)C(=O)SCCNC(=O)CCNC(=O)[C@H](O)C(C)(C)COP(=O)(O)OP(=O)(O)OC[C@H]1O[C@@H](n2cnc3c(N)ncnc32)[C@H](O)[C@@H]1OP(=O)(O)O [isobutyryl-CoA]
Recombinant ARS1 [4]
  activity as starter unit (in words): No activity
Recombinant ARS2 [3]
  activity as starter unit (in words): No activity

## CC(C)CC(=O)SCCNC(=O)CCNC(=O)[C@H](O)C(C)(C)COP(=O)(O)OP(=O)(O)OC[C@H]1O[C@@H](n2cnc3c(N)ncnc32)[C@H](O)[C@@H]1OP(=O)(O)O [isovaleryl-CoA]
Recombinant ARS1 [4]
  activity as starter unit (in words): No activity
Recombinant ARS2 [3]
  activity as starter unit (in words): No activity

## CCCCCCCCCCCCCC(=O)SCCNC(=O)CCNC(=O)[C@H](O)C(C)(C)COP(=O)(O)OP(=O)(O)OC[C@H]1O[C@@H](n2cnc3c(N)ncnc32)[C@H](O)[C@@H]1OP(=O)(O)O [myristoyl-CoA]
Recombinant ARS1 [4]
  triketide pyrone derailment product, share of the total moles product derived from the starter: ~15%
Recombinant ARS1 [4]; [5]
  maximal 5-alkylresorcinol-forming activity: 81.0 pkat mg^−1
Recombinant ARS2 [3]
  triketide pyrone derailment product, share of the total moles product derived from the starter: < 5%
